# ChEMBL document CHEMBL4765227, “Hit to lead optimization of a series of N-[4-(1,3-benzothiazol-2-yl)phenyl]acetamides as monoacylglycerol lipase inhibitors with potential anticancer activity” (Eur J Med Chem, 2016)
# Columns and labels:
# Assay type in all cases: functional
# PC-3 = experiment: Growth inhibition of human PC-3 cells incubated for 48 hrs by sulforhodamine B assay
# HT-29 = experiment: Growth inhibition of human HT-29 cells incubated for 48 hrs by sulforhodamine B assay
# SK-MEL-5 = experiment: Growth inhibition of human SK-MEL-5 cells incubated for 48 hrs by sulforhodamine B assay
# BT-549 = experiment: Growth inhibition of human BT-549 cells incubated for 48 hrs by sulforhodamine B assay
# RXF 393 = experiment: Growth inhibition of human RXF 393 cells incubated for 48 hrs by sulforhodamine B assay
# T47D = experiment: Growth inhibition of human T47D cells incubated for 48 hrs by sulforhodamine B assay
# MCF7 = experiment: Growth inhibition of human MCF7 cells incubated for 48 hrs by sulforhodamine B assay
# IGROV-1 = experiment: Growth inhibition of human IGROV-1 cells incubated for 48 hrs by sulforhodamine B assay
# SNB-75 = experiment: Growth inhibition of human SNB-75 cells incubated for 48 hrs by sulforhodamine B assay
# HOP-92 = experiment: Growth inhibition of human HOP-92 cells incubated for 48 hrs by sulforhodamine B assay
# K562 = experiment: Growth inhibition of human K562 cells incubated for 48 hrs by sulforhodamine B assay
# ACHN = experiment: Growth inhibition of human ACHN cells incubated for 48 hrs by sulforhodamine B assay
# HCT-15 = experiment: Growth inhibition of human HCT-15 cells incubated for 48 hrs by sulforhodamine B assay
# OVCAR-5 = experiment: Growth inhibition of human OVCAR-5 cells incubated for 48 hrs by sulforhodamine B assay
# HCT-116 = experiment: Growth inhibition of human HCT-116 cells incubated for 48 hrs by sulforhodamine B assay
# Malme-3M = experiment: Growth inhibition of human Malme-3M cells incubated for 48 hrs by sulforhodamine B assay
# A498 = experiment: Growth inhibition of human A498 cells incubated for 48 hrs by sulforhodamine B assay
# MDA-MB-468 = experiment: Growth inhibition of human MDA-MB-468 cells incubated for 48 hrs by sulforhodamine B assay
# SK-MEL-28 = experiment: Growth inhibition of human SK-MEL-28 cells incubated for 48 hrs by sulforhodamine B assay
# SK-OV-3 = experiment: Growth inhibition of human SK-OV-3 cells incubated for 48 hrs by sulforhodamine B assay
# NCI-H23 = experiment: Growth inhibition of human NCI-H23 cells incubated for 48 hrs by sulforhodamine B assay
# MOLT-4 = experiment: Growth inhibition of human MOLT-4 cells incubated for 48 hrs by sulforhodamine B assay
# OVCAR-3 = experiment: Growth inhibition of human OVCAR-3 cells incubated for 48 hrs by sulforhodamine B assay
# NCI-H522 = experiment: Growth inhibition of human NCI-H522 cells incubated for 48 hrs by sulforhodamine B assay
# SNB-19 = experiment: Growth inhibition of human SNB-19 cells incubated for 48 hrs by sulforhodamine B assay
# SF-295 = experiment: Growth inhibition of human SF-295 cells incubated for 48 hrs by sulforhodamine B assay
# DU-145 = experiment: Growth inhibition of human DU-145 cells incubated for 48 hrs by sulforhodamine B assay
# NCI-H460 = experiment: Growth inhibition of human NCI-H460 cells incubated for 48 hrs by sulforhodamine B assay
# CAKI-1 = experiment: Growth inhibition of human CAKI-1 cells incubated for 48 hrs by sulforhodamine B assay
# A549 = experiment: Growth inhibition of human A549/ATCC cells incubated for 48 hrs by sulforhodamine B assay
# MDA-MB-435 = experiment: Growth inhibition of human MDA-MB-435 cells incubated for 48 hrs by sulforhodamine B assay
# UACC-257 = experiment: Growth inhibition of human UACC-257 cells incubated for 48 hrs by sulforhodamine B assay
# EKVX = experiment: Growth inhibition of human EKVX cells incubated for 48 hrs by sulforhodamine B assay
# UO-31 = experiment: Growth inhibition of human UO-31 cells incubated for 48 hrs by sulforhodamine B assay
# SF-268 = experiment: Growth inhibition of human SF-268 cells incubated for 48 hrs by sulforhodamine B assay
# [1] = read-out: LC50 (the source's name)
structure (smiles),measurement,setting,value
O=C(CNc1ccc(Cl)cc1)Nc1ccc(-c2nc3ccccc3s2)cc1,GI50,PC-3,2.01 µM
same,TGI,PC-3,5.13 µM
same,CC50,PC-3; [1],17.9 µM
same,GI50,HT-29,1.96 µM
same,LC50,HT-29,8.17 µM
same,TGI,HT-29,4 µM
same,GI50,SK-MEL-5,1.57 µM
same,LC50 (50% lethal concentration),SK-MEL-5,6.53 µM
same,TGI,SK-MEL-5,3.2 µM
same,GI50,BT-549,1.57 µM
same,LC50 (concentration killing 50% of cells),BT-549,9.1 µM
same,TGI,BT-549,3.78 µM
same,GI50,RXF 393,1.66 µM
same,LC50 (concentration killing 50% of cells),RXF 393,7.68 µM
same,TGI,RXF 393,3.57 µM
same,GI50,T47D,1.86 µM
same,LC50 (concentration killing 50% of cells),T47D,> 100 µM
same,TGI,T47D,5.94 µM
same,GI50,MCF7,0.0325 µM
same,LC50,MCF7,> 100 µM
same,TGI,MCF7,2.5 µM
same,GI50,IGROV-1,1.9 µM
same,TGI,IGROV-1,4.27 µM
same,CC50,IGROV-1; [1],9.59 µM
same,GI50,SNB-75,2.65 µM
same,LC50 (concentration killing 50% of cells),SNB-75,37.6 µM
same,TGI,SNB-75,14.1 µM
same,GI50,HOP-92,2.4 µM
same,LC50 (concentration killing 50% of cells),HOP-92,37.8 µM
same,TGI,HOP-92,8.11 µM
same,GI50,K562,2.95 µM
same,LC50,K562,> 100 µM
same,TGI,K562,> 100 µM
same,GI50,ACHN,2.31 µM
same,LC50,ACHN,18.2 µM
same,TGI,ACHN,5.57 µM
same,GI50,HCT-15,1.56 µM
same,TGI,HCT-15,4.74 µM
same,CC50,HCT-15; [1],45.9 µM
same,GI50,OVCAR-5,2.26 µM
same,LC50 (concentration killing 50% of cells),OVCAR-5,23.9 µM
same,TGI,OVCAR-5,5.8 µM
same,GI50,HCT-116,1.84 µM
same,TGI,HCT-116,3.91 µM
same,CC50,HCT-116; [1],8.3 µM
same,GI50,Malme-3M,1.98 µM
same,TGI,Malme-3M,4.22 µM
same,CC50,Malme-3M; [1],8.99 µM
same,GI50,A498,13 µM
same,TGI,A498,25.8 µM
same,CC50,A498; [1],50.9 µM
same,GI50,MDA-MB-468,0.0238 µM
same,TGI,MDA-MB-468,0.353 µM
same,CC50,MDA-MB-468; [1],6.19 µM
same,GI50,SK-MEL-28,2.03 µM
same,LC50,SK-MEL-28,9.72 µM
same,TGI,SK-MEL-28,4.44 µM
same,GI50,SK-OV-3,4.57 µM
same,LC50 (concentration killing 50% of cells),SK-OV-3,> 100 µM
same,TGI,SK-OV-3,61.8 µM
same,GI50,NCI-H23,2.04 µM
same,LC50 (lethal concentration 50%),NCI-H23,21.6 µM
same,TGI,NCI-H23,4.7 µM
same,GI50,MOLT-4,1.25 µM
same,LC50,MOLT-4,> 100 µM
same,TGI,MOLT-4,7.09 µM
same,GI50,OVCAR-3,1.85 µM
same,LC50,OVCAR-3,5.88 µM
same,TGI,OVCAR-3,3.3 µM
same,GI50,NCI-H522,1.32 µM
same,LC50 (50% lethal concentration),NCI-H522,7.46 µM
same,TGI,NCI-H522,3.13 µM
same,GI50,SNB-19,2.81 µM
same,LC50,SNB-19,57.9 µM
same,TGI,SNB-19,10.2 µM
same,GI50,SF-295,1.28 µM
same,LC50 (concentration causing 50% net cell kill),SF-295,61.8 µM
same,TGI,SF-295,28.1 µM
same,GI50,DU-145,3.34 µM
same,LC50 (concentration killing 50% of cells),DU-145,32.1 µM
same,TGI,DU-145,10.3 µM
same,GI50,NCI-H460,3.73 µM
same,TGI,NCI-H460,13.1 µM
same,CC50,NCI-H460; [1],39.8 µM
same,GI50,CAKI-1,2.74 µM
same,LC50 (concentration killing 50% of cells),CAKI-1,34.4 µM
same,TGI,CAKI-1,10.5 µM
same,GI50,A549,3.31 µM
same,TGI,A549,13.7 µM
same,CC50,A549; [1],> 100 µM
same,GI50,MDA-MB-435,2.66 µM
same,LC50,MDA-MB-435,42.7 µM
same,TGI,MDA-MB-435,11.1 µM
same,GI50,UACC-257,3.12 µM
same,LC50,UACC-257,57.7 µM
same,TGI,UACC-257,11.1 µM
same,GI50,EKVX,4.36 µM
same,LC50,EKVX,66.9 µM
same,TGI,EKVX,19.1 µM
same,GI50,UO-31,1.96 µM
same,LC50 (concentration killing 50% of cells),UO-31,40.3 µM
same,TGI,UO-31,9.79 µM
same,GI50,SF-268,2 µM
same,LC50,SF-268,15 µM
same,TGI,SF-268,4.76 µM
